In patent US9493444B2 (Merck Patent GmbH, priority 2012, dated 2016):

These compounds were tested on Wnt pathway (TCF-dependent transcription in HEK293 luciferase reporter cell line with ER-DSH construct) (assay: Cellular assay for Wnt pathway activity (luciferase reporter)). Conditions: Homo sapiens; Wnt pathway inhibition, HEK293 luciferase reporter cells (ER-DSH, TCF promoter), 24 hours incubation, estrogen-induced.
Type: cell-based
Method in brief: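 Luminescent luciferase read-out after 24 h compound exposure at 1 nM to 30 μM, with TCF-driven transcription switched on by estrogen addition. IC50 values come from curve fits of data normalized against the vehicle-only control.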

`CC(=O)N(C)CCN(C)c1cncc(Oc2ccc(C)cc2)n1` [Compound 52, N-Methyl-N-{2-[methyl-(6-p-tolyloxy-pyrazin-2-yl)-amino]-ethyl}-acetamide] and `CC(=O)N(C)CCN(C)c1cncc(Oc2ccc(CO)cc2)n1` [Compound 181, N-(2-{[6-(4-Hydroxymethyl-phenoxy)-pyrazin-2-yl]-methyl-amino}-ethyl)-N-methyl-acetamide] cannot be ordered by IC50: under 0.2 µM for the first, under 0.2 µM for the second.

`CC(=O)NCC(C)Nc1cncc(Oc2ccc(F)cc2)n1` (stereo not drawn) [Compound 289, N-{2-[6-(4-Fluoro-phenoxy)-pyrazin-2-ylamino]-propyl}-acetamide] and `CCN(CCNc1cncc(Oc2ccc(F)cc2)n1)C(C)=O` [Compound 72, N-Ethyl-N-{2-[6-(4-fluoro-phenoxy)-pyrazin-2-ylamino]-ethyl}-acetamide] fall in the same range of IC50: 1 to 10 µM for the first, 1 to 10 µM for the second.

First: CC(=O)N(C)CCN(C)c1cncc(OC2CCCC2)n1 [Compound 43, N-{2-[(6-Cyclo-pentyloxy-pyrazin-2-yl)-methyl-amino]-ethyl}-N-methyl-acetamide]
Second: CNCCN(C)c1cncc(OC2CCCCC2)n1 [Compound 46, N-(6-Cyclo-hexyloxy-pyrazin-2-yl)-N,N′-dimethyl-ethane-1,2-diamine]
The IC50 of the first is higher: 1 to 10 µM for the first, 0.2 to 1 µM for the second.

First: CC(=O)N(C)CCCc1cncc(Oc2ccc(-c3ccc(F)cn3)cc2)n1 [Compound 220, N-(3-{6-[4-(5-Fluoro-pyridin-2-yl)-phenoxy]-pyrazin-2-yl}-propyl)-N-methyl-acetamide]
Second: CC(=O)N(C)CCCc1cncc(Oc2ccc(-c3ccc(C)cn3)cc2)n1 [Compound 215, N-Methyl-N-(3-{6-[4-(5-methyl-pyridin-2-yl)-phenoxy]-pyrazin-2-yl}-propyl)-acetamide]
The IC50 of the first is higher: 1 to 10 µM for the first, 0.2 to 1 µM for the second.

First: CC(=O)N(C)CCN(C)c1cncc(Oc2ccc(C3CCC(=O)CC3)cc2)n1 [Compound 178, N-Methyl-N-[2-(methyl-{6-[4-(4-oxo-cyclohexyl)-phenoxy]-pyrazin-2-yl}-amino)-ethyl]-acetamide]
Second: CC(=O)N(C)CCN(C)c1cncc(Oc2ccc(S(N)(=O)=O)cc2)n1 [Compound 101, N-Methyl-N-(2-[methyl-[6-(4-sulfamoyl-phenoxy)-pyrazin-2-yl]-amino}-ethyl)-acetamide]
The IC50 of the first is lower: under 0.2 µM for the first, 0.2 to 1 µM for the second.

Compared with `CC(=O)N(C)CCN(C)c1cncc(Oc2ccc(-c3ncc(O)cn3)cc2)n1` [Compound 165, N-[2-({6-[4-(5-Hydroxy-pyrimidin-2-yl)-phenoxy]-pyrazin-2-yl}-methyl-amino)-ethyl]-N-methyl-acetamide], `CC(=O)N(C)CCN(C)c1cncc(Oc2ccc(-c3cccc(C)n3)cc2)n1` [Compound 160, N-Methyl-N-[2-(methyl-{6-[4-(6-methyl-pyridin-2-yl)-phenoxy]-pyrazin-2-yl}-amino)-ethyl]-acetamide] is lower in IC50: 1 to 10 µM for the first, under 0.2 µM for the second. The second is the more potent here.

First: CC(=O)Nc1ccc(-c2ccc(Oc3cncc(NCCN(C)C(C)=O)n3)c(F)c2)cn1 [Compound 258, N-[5-(4-{6-[2-(Acetyl-methyl-amino)-ethylamino]-pyrazin-2-yloxy}-3-fluoro-phenyl)-pyridin-2-yl]-acetamide]
Second: CC(=O)Nc1ccc(-c2ccc(Oc3cncc(N(C)CCN(C)C(C)=O)n3)c(F)c2)nc1 [Compound 230, N-{6-[4-(6-{[2-(Acetyl-methyl-amino)-ethyl]-methyl-amino}-pyrazin-2-yloxy)-3-fluoro-phenyl]-pyridin-3-yl}-acetamide]
The IC50 of the first is higher: 0.2 to 1 µM for the first, under 0.2 µM for the second.

`CCN(CCNc1cncc(Oc2cccc(F)c2)n1)C(C)=O` [Compound 70, N-Ethyl-N-{2-[6-(3-fluoro-phenoxy)-pyrazin-2-ylamino]-ethyl}-acetamide] and `CC(=O)N(C)CCNc1cncc(Cc2ccc(F)cc2)n1` [Compound 322, N-{2-[6-(4-Fluoro-benzyl)-pyrazin-2-ylamino]-ethyl}-N-methyl-acetamide] fall in the same range of IC50: 1 to 10 µM for the first, 1 to 10 µM for the second.

First: CC(=O)N(C)CCN(C)c1cncc(Oc2ccc3[nH]c(=O)oc3c2)n1 [Compound 154, N-Methyl-N-(2-{methyl-[6-(2-oxo-2,3-dihydro-benzooxazol-6-yloxy)-pyrazin-2-yl]-amino}-ethyl)-acetamide]
Second: CC(=O)Nc1ccc(Oc2cncc(N(C)CCN(C)C(C)=O)n2)cc1 [Compound 94, N-(2-{[6-(4-Acetylamino-phenoxy)-pyrazin-2-yl]-methyl-amino}-ethyl)-N-methyl-acetamide]
The IC50 of the first is higher: 1 to 10 µM for the first, 0.2 to 1 µM for the second.

First: COc1ccc(Oc2cncc(N(C)CCNC(C)=O)n2)cc1 [Compound 59, N-(2-{[6-(4-Methoxy-phenoxy)-pyrazin-2-yl]-methyl-amino}-ethyl)-acetamide]
Second: COc1ccc(Oc2cncc(N(C)CCN(C)C(=O)CC(C)(C)C)n2)cc1 [Compound 32, N-(2-{[6-(4-Methoxy-phenoxy)-pyrazin-2-yl]-methyl-amino}-ethyl)-3,3-N-trimethyl-butyramide]
The IC50 of the first is lower: 0.2 to 1 µM for the first, 1 to 10 µM for the second. The first is the more potent here.

`O=C1CCCCN1CCCc1cncc(Oc2ccc(-c3ccc(N4CCOCC4)nc3)cc2)n1` [Compound 25, 1-(3-{6-[4-(6-Morpholin-4-yl-pyridin-3-yl)-phenoxy]-pyrazin-2-yl}-propyl)-piperidin-2-one] and `CC(=O)N(C)CCN(C)c1cncc(Oc2ccc(-c3ccc(N4CCOCC4)nc3)cc2F)n1` [Compound 239, N-[2-({6-[2-Fluoro-4-(6-morpholin-4-yl-pyridin-3-yl)-phenoxy]-pyrazin-2-yl}-methyl-amino)-ethyl]-N-methyl-acetamide] cannot be ordered by IC50: under 0.2 µM for the first, under 0.2 µM for the second.

First: CC(=O)N(C)CCCc1cncc(Oc2ccc(F)cc2)n1 [Compound 264, N-{3-[6-(4-Fluoro-phenoxy)-pyrazin-2-yl]-propyl}-N-methyl-acetamide]
Second: CCC(C)(C)c1ccc(Oc2cncc(N(C)CCN(C)C(C)=O)n2)cc1 [Compound 139, N-[2-({6-[4-(1,1-Dimethyl-propyl)-phenoxy]-pyrazin-2-yl}-methyl-amino)-ethyl]-N-methyl-acetamide]
The IC50 of the first is higher: 1 to 10 µM for the first, 0.2 to 1 µM for the second.

First: CC(=O)N(C)CCN(C)c1cncc(Oc2ccc(-c3cc4ccccc4cn3)cc2)n1 [Compound 166, N-(2-{[6-(4-Isoquinolin-3-yl-phenoxy)-pyrazin-2-yl]-methyl-amino}-ethyl)-N-methyl-acetamide]
Second: CC(=O)N(C)CCN(C)c1cncc(Oc2ccc(-c3cccc(C#N)n3)cc2)n1 [Compound 200, N-[2-({6-[4-(6-Cyano-pyridin-2-yl)-phenoxy]-pyrazin-2-yl}-methyl-amino)-ethyl]-N-methyl-acetamide]
The IC50 of the first is higher: 0.2 to 1 µM for the first, under 0.2 µM for the second.

First: CC(=O)N(C)CCN(C)c1cncc(Oc2ccc(C(=O)Nc3cccnc3)cc2)n1 [Compound 231, 4-(6-{[2-(Acetyl-methyl-amino)-ethyl]-methyl-amino}-pyrazin-2-yloxy)-N-pyridin-3-yl-benzamide]
Second: CC(=O)N(C)CCN(C)c1cncc(Oc2ccc(N3CCN(C(C)=O)CC3)cc2)n1 [Compound 87, N-[2-({6-[4-(4-Acetyl-piperazin-1-yl)-phenoxy]-pyrazin-2-yl}-methyl-amino)-ethyl]-N-methyl-acetamide]
The IC50 of the first is lower: under 0.2 µM for the first, 0.2 to 1 µM for the second. The first is the more potent here.

`CSc1cccc(Oc2cncc(N(C)CCN(C)C(=O)C(F)F)n2)c1` [Compound 75, 2,2-Difluoro-N-methyl-N-(2-{methyl-[6-(3-methyl-sulfanyl-phenoxy)-pyrazin-2-yl]-amino}-ethyl)-acetamide] and `CN(CCN(C)c1cncc(Oc2ccc3ncccc3c2)n1)C(=O)C(F)(F)F` [Compound 74, 2,2,2-Trifluoro-N-methyl-N-(2-{methyl-[6-(quinolin-6-yloxy)-pyrazin-2-yl]-amino}-ethyl)-acetamide] fall in the same range of IC50: 1 to 10 µM for the first, 1 to 10 µM for the second.

First: CN(C=O)CCNc1cncc(Oc2ccc(-c3cccc(N4CCN(C)CC4)n3)cc2)n1 [Compound 311, N-Methyl-N-[2-(6-{4-[6-(4-methyl-piperazin-1-yl)-pyridin-2-yl]-phenoxy}-pyrazin-2-ylamino)-ethyl]-formamide]
Second: CC(=O)N(C)CCN(C)c1cncc(Oc2ccc(-c3cccc(N4CCN(C)CC4)n3)cc2F)n1 [Compound 253, N-{2-[(6-{2-Fluoro-4-[6-(4-methyl-piperazin-1-yl)-pyridin-2-yl]-phenoxy}-pyrazin-2-yl)-methyl-amino]-ethyl}-N-methyl-acetamide]
The IC50 of the first is higher: 0.2 to 1 µM for the first, under 0.2 µM for the second. The second is the more potent here.

First: CCN(CCN(CC)c1cncc(Oc2ccc(OC)cc2)n1)C(C)=O [Compound 103, N-Ethyl-N-(2-{ethyl-[6-(4-methoxy-phenoxy)-pyrazin-2-yl]-amino}-ethyl)-acetamide]
Second: CCN(CCSc1cncc(Oc2ccc(-c3ccc(C)cn3)cc2)n1)C(C)=O [Compound 17, N-Ethyl-N-(2-{6-[4-(5-methyl-pyridin-2-yl)-phenoxy]-pyrazin-2-ylsulfanyl}-ethyl)-acetamide]
The IC50 of the first is higher: 0.2 to 1 µM for the first, under 0.2 µM for the second. The second is the more potent here.

First: COc1ccc(Oc2cncc(NCC3CCCN3C(C)=O)n2)cc1 (stereo not drawn) [Compound 57, 1-(2-{[6-(4-Methoxy-phenoxy)-pyrazin-2-ylamino]-methyl}-pyrrolidin-1-yl)-ethanone]
Second: COc1ccc(-c2ccc(Oc3cncc(NCCN(C)C(C)=O)n3)cc2)nc1 [Compound 240, N-(2-{6-[4-(5-Methoxy-pyridin-2-yl)-phenoxy]-pyrazin-2-ylamino}-ethyl)-N-methyl-acetamide]
The IC50 of the first is higher: 1 to 10 µM for the first, 0.2 to 1 µM for the second. The second is the more potent here.

`CC(=O)N(C)CCN(C)c1cncc(Oc2cnn(-c3cccc(C(F)(F)F)c3)c2)n1` [Compound 222, N-Methyl-N-[2-(methyl-{6-[1-(3-trifluoromethyl-phenyl)-1H-pyrazol-4-yloxy]-pyrazin-2-yl}-amino)-ethyl]-acetamide] and `CC(=O)N(C)CCNc1cncc(Oc2ccc(-c3cnc(N)cn3)cc2)n1` [Compound 241, N-(2-{6-[4-(5-Amino-pyrazin-2-yl)-phenoxy]-pyrazin-2-ylamino}-ethyl)-N-methyl-acetamide] fall in the same range of IC50: 1 to 10 µM for the first, 1 to 10 µM for the second.

`CC(=O)N(C)CCCc1cncc(Oc2ccc(-c3ccc(C)cn3)cc2)c1` [Compound 312, N-Methyl-N-(3-{5-[4-(5-methyl-pyridin-2-yl)-phenoxy]-pyridin-3-yl}-propyl)-acetamide] gave an IC50 of 1 to 10 µM.
